The test system of assay [1] is gene expression in KARPAS422 cells. In words: RNA-seq of drug-treated KARPAS422 cells. Type of assay: cell-based, human. On the procedure:
12. RNA Extraction, qPCR, and Sequencing Library Preparation Cells were plated at 1 M/mL and harvested in TRIsure (Bioline #38033). RNA was extracted using Direct-zol RNA MicroPrep columns (Zymo #R^2062) treated with DNAseI. cDNA was prepared for RT-qPCR using the SensiFAST cDNA preparation kit according to manufacturer instructions (Bioline #65054). 1 μL of cDNA was used per RT-qPCR reaction prepared with SYBR Lo-ROX (Bioline #94020). For sequencing library preparation, polyA-containing transcripts were enriched for (NEB #E7490S) and prepared into paired-end libraries (NEB #E7760S). Libraries were sequenced on an Illumina NovaSeq (Novogene). 13. Western Blots
(www.bioinformatics.babraham.ac.uk/projects/fastqc/) and trimmed from adapters using cutadapt (Martin, M., EMBnet.journal (2011) 17: 10) using parameters cutadapt—a […] -b (SEQ ID NO:01) […] (SEQ ID NO:02) -nextseq-trim=20-minimum-length 1. Transcripts were quantified using kallisto (Bray et al., Nature Biotechnology (2016) 34: 525-527) against the human Gencode v33 indexed transcriptome and annotations. […] 15. ChIP-Seq Experiment and Library Preparation
Because a high percentage of the TCIP1-treated cells contain fragmented DNA by TUNEL assay at 24 hours (FIG. 31, Panel E), many of the “reduced genes” could reflect DNA fragmentation as part of the apoptotic process and digestion to mononucleosomes. Among the group of genes whose expression was most reduced were MYC and its targets (FIGS. 33B, 36C). The top 100 most TCIP1-reduced genes were examined using ChIP-seq data of human transcription factors in blood cancer cell lines, and found the promoters of TCIP1-inhibited genes highly enriched for MYC binding in multiple datasets (FIG. 33, Panel C). This is significant since many DLBCLs are considered to be MYC-dependent.
Almost all differential genes were increasingly activated at 4 hours compared to negligible effects of the control molecules Neg1 and Neg2 (FIG. 35, Panel B).

The subject of assay [2] is BRD4, Pol II ser 2 phos, H3K27ac occupancy. In words: ChIP-seq of BRD4, Pol II ser 2 phos, H3K27ac in KARPAS422 cells. Type of assay: cell-based, human. The procedure: Cells were washed in PBS and crosslinked for 12 minutes in CiA Fix Buffer (50 mM HEPES pH 8.0, 1 mM EDTA, 0.5 mM EGTA, 100 mM NaCl) with addition of formaldehyde to a final concentration of 1%. The crosslinking reaction was quenched by glycine added at 0.125 M final concentration. Crosslinked cells were centrifuged at 1,000×g for 5 minutes. Nuclei were prepared by 10 minute incubation of resuspended pellet in CiA NP-Rinse 1 buffer (50 mM HEPES pH 8.0, 140 mM NaCl, 1 mM EDTA, 10% glycerol, 0.5% IPEGAL CA-630, 0.25% Triton X100) followed by wash in CIA NP-Rinse 2 buffer (10 mM Tris pH 8.0, 1 mM EDTA, 0.5 mM EGTA, 200 mM NaCl). The pellet was resuspended in CiA Covaris Shearing Buffer (0.1% SDS, 1 mM EDTA pH 8.0, 10 mM Tris HCl pH 8.0) with 1000× protease inhibitors (Roche) and sonicated for 20 minutes with Covaris E220 sonicator (Peak Power 140, Duty Factor 5.0, Cycles/Burst 200). The distribution of fragments was confirmed with agarose gel. 300 μL of chromatin per ChIP was used with anti-BRD4 antibodies (Cell Signaling E2A7X). 50 μg of chromatin was used with anti-Pol II ser 2 phos (Abcam ab5095) and anti-Pol II ser 5 phos (ActiveMotif 3E8) antibodies. 25 μg of chromatin was used with anti-H3K27ac (Abcam ab4729). For each Pol II ser 2 phos, Pol II ser 5 phos, and H3K27ac ChIP, exactly 20 ng (for Pol II ser 2 phos and ser 5 phos) or 50 ng (for H3K27ac) Drosophila chromatin (ActiveMotif #53083) was spiked-in with 2 μL spike-in-chromatin-specific antibody (ActiveMotif #61686). After overnight incubation at 4° C. in IP buffer (50 mM HEPES pH 7.5, 300 mM NaCl, 1 mM EDTA, 1% Triton X100, 0.1% sodium deoxycholic acid salt (DOC), 0.1% SDS), Ips were washed twice with IP buffer, once with DOC buffer (10 mM Tris pH 8, 0.25 M LiCl, 0.5% IPEGAL CA-630, 0.5% sodium deoxycholic acid salt (DOC), 1 mM EDTA), and, once with 10 mM Tris/1 mM EDTA buffer (TE) pH 8. Ips and inputs were reverse-crosslinked in TE/0.5% SDS/0.5 μg/μL proteinase K for 55° C./3 hours then 65° C./18 hours, then DNA was purified using a PCR cleanup spin column (Takara #74609). The sequencing library preparation was performed using NEBNext Ultra II DNA kit (#E7645S). Libraries were sequenced on an Illumina NovaSeq (Novogene).
The data quality was checked using fastqc. The raw reads were trimmed from adapters with trim_galore (parameters: —paired—255 Ilumine) and raw reads were aligned to hg38 human genome assembly and the dm6 fly genome assembly using bowtie2 (parameters: —local—maxins 1000). Low quality reads, duplicated reads and reads with multiple alignments were removed using samtools (Li et al., Bioinformatics (2009) 25: 2078-2079) and Picard (broadinstitute.github.io/picard/). Macs2 was used to map position of peaks with FDR cutoff of 0.05. Bedtools (Quinlan et al, Bioinformatics (2010) 26: 841-842) was used to find consensus set of peaks by merging peaks across multiple conditions (bedtools merge), count number of reads in peaks (bedtools intersect—c) and generate genome coverage (bedtools genomecov-bga). deepTools (Ramirez et al., Nucleic Acids Research (2016) 44: W160-W165). […] This procedure was carried out on a per-antigen basis (i.e., the H3K27ac ChIPs were treated separately from the Pol II ser 2 phos ChIPs which were separate from the Poll II ser 5 phos ChIPs). The average percentage of reads in each sample that mapped to the fly genome was 1.8±1.4% (mean±s.d.). All browser tracks and metaprofiles shown were calculated with spike-in normalized and input-subtracted data. The peak differential analysis and PCA analysis was performed using DESeq2^82.
BRD4 and other BET proteins have previously been implicated largely in transcriptional elongation, particularly in mediating P-TEFb/CDK9 activation of RNA Polymerase II ([…]) elongation activity by phosphorylation of serine 2 of the C-terminal domain (CTD) of Pol II ([…] ser 2 phos). […]

The mark [3] stands for this setting: after 2 hours, of 51,678 consensus peaks.

Where only a bound is given, the exact number is not on record here.

As for `CNC(=O)COc1cc2cc(Nc3nc(N4CCC(C(=O)NCCCCCCCNC(=O)C[C@@H]5N=C(c6ccc(Cl)cc6)c6c(sc(C)c6C)-n6c(C)nnc65)CC4)ncc3Cl)cc(OC)c2n(C)c1=O` [JWZ-7-7, (S)-1-(5-chloro-4-((8-methoxy-1-methyl-3-(2-(methylamino)-2-oxoethoxy)-2-oxo-1,2-dihydroquinolin-6-yl)amino)pyrimidin-2-yl)-N-(7-(2-(4-(4-chlorophenyl)-2,3,9-trimethyl-6H-thieno[3,2-f][1,2,4]triazolo[4,3-a][1,4]diazepin-6-yl)acetamido)heptyl)piperidine-4-carboxamide], in assay [1] (RNA-seq), the “BCL6 repressed genes activated” value is listed as 60%. In addition, the “Time to Pol II serine 2 phosphorylation (transcriptional elongation) at BCL6 targets” value in assay [2] (10 nM) was ≤ 15 min. The “Loss of BRD4 from enhancers and super enhancers” value in assay [2] (ChIP-seq) is reported as “about 10%”. Moreover, the “Fraction of total BRD4 recruited / relocalized to BCL6 target genes” value in assay [2] (Karpas 422, one hour) is on record as “about 10%”.
Take `CNC(=O)COc1cc2cc(Nc3nc(N4CCC(C(=O)NCCCCCCCNC(=O)C[C@@H]5N=C(c6ccc(Cl)cc6)c6c(sc(C)c6C)-n6c(C)nnc65)CC4)ncc3Cl)cc(OC)c2n(C)c1=O` [TCIP1]: the “Number of genes activated” value in assay [1] (10 nM, 2 hours, KARPAS422) is reported as 140 genes. In assay [1] (10 nM, 20 hours, KARPAS422), the “Median change of activated genes” value is given as 4 fold, the “Number of genes increased in expression” value is 1,674 genes and the “Number of genes reduced in expression” value is given as 1,364 genes. Besides, the “Increase of CDKN1A (p21) expression” value in assay [1] (RNA-seq, 20 hours, KARPAS422) is recorded as “about 64 fold”. In assay [2] (ChIP-seq, one hour), the “Increase of BRD4 at promoters of BCL6 target genes / genomic BCL6 binding sites” value stood at 50%. In assay [2] (setting [3]), this compound came in with an H3K27ac peaks decreased of 70 peaks and an H3K27ac peaks increased of 126 peaks.

These data come from US12685777B2, “Compositions, systems, and methods for modulating a target gene” (The Board of Trustees of the Leland Stanford Junior …, priority 2022, dated 2026).
